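Compound exposure: 48 hours, 5 concentrations, 96-well plates. Here, GI50 denotes the concentration required for 50% inhibition of growth.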 Activity calls are given as the source filed them. Cut-off read from the data, not from the text of the source: active = GI50 up to about 1.1 µM and inactive = higher.
What was measured:
Assay in all cases: growth of human tumour cells (NCI), 48 h
[1] = system: SK-MEL-5
[2] = system: NCI-H460
[3] = system: Malme-3M
[4] = system: NCI-H226
[5] = system: HOP-92
[6] = system: BT-549
[7] = system: RPMI-8226
[8] = system: SK-OV-3
[9] = system: IGROV-1
[10] = system: OVCAR-8
[11] = system: A498
[12] = system: HOP-62
[13] = system: PC-3
[14] = system: NCI-H522
[15] = system: SF-539
[16] = system: OVCAR-5
[17] = system: HL-60
[18] = system: SK-MEL-2
[19] = system: SNB-75
[20] = system: RXF 393
[21] = system: HCT-116
[22] = system: U-251
[23] = system: SR
[24] = system: HCT-15
[25] = system: MDA-N
[26] = system: OVCAR-3
[27] = system: M14
[28] = system: CCRF-CEM
[29] = system: HCC 2998
[30] = system: NCI-H23
[31] = system: SF-268
[32] = system: UO-31
[33] = system: UACC-62
[34] = system: TK-10
[35] = system: HT-29
[36] = system: LOX IMVI
[37] = system: DU-145
[38] = system: OVCAR-4
[39] = system: SK-MEL-28
[40] = system: Hs-578T
[41] = system: NCI/ADR-RES
[42] = system: ACHN
[43] = system: COLO 205
[44] = system: A549
[45] = system: SW-620
[46] = system: T47D
[47] = system: MOLT-4
[48] = system: SF-295
[49] = system: 786-0
[50] = system: MDA-MB-435
[51] = system: MDA-MB-231
[52] = system: MCF7
[53] = system: KM12
[54] = system: SN12C
[55] = system: CAKI-1
[56] = system: EKVX
[57] = system: SNB-19
[58] = system: UACC-257
[59] = system: K562

Measured: GI50

CCOc1ccccc1/N=N/C1C(=O)N(C(=O)CC(=O)Nc2ccccc2C)N=C1C (stereo not drawn)
20.9 µM: [24]
inactive: [1] > 100 µM | [2] 43.7 µM | [3] > 100 µM | [4] > 100 µM | [5] 17.1 µM | [6] 65.5 µM | [7] 43.9 µM | [8] 19.7 µM | [9] 45 µM | [10] 39 µM | [11] 29.2 µM | [12] 19.9 µM | [13] > 100 µM | [14] 61.2 µM | [15] 56 µM | [16] > 100 µM | [17] > 100 µM | [18] 38.4 µM | [19] 24.2 µM | [20] 25.4 µM | [21] 44.4 µM | [22] 19.4 µM | [23] > 100 µM | [25] > 100 µM | [26] 87.9 µM | [27] > 100 µM | [28] > 100 µM | [29] > 100 µM | [30] 59.7 µM | [31] 19.6 µM | [32] 27.2 µM | [33] 21.3 µM | [34] 52.4 µM | [35] > 100 µM | [36] > 100 µM | [37] 79.3 µM | [38] > 100 µM | [39] > 100 µM | [40] 6.55 µM | [41] 54.6 µM | [42] > 100 µM | [43] > 100 µM | [44] 89.7 µM | [45] > 100 µM | [46] 51.9 µM | [47] > 100 µM | [48] 15.9 µM | [49] 46.9 µM | [50] > 100 µM | [51] 37.8 µM | [52] > 100 µM | [53] > 100 µM | [54] > 100 µM | [55] > 100 µM
active: [56] 0.984 µM

CO/[N+]([O-])=C\C(=O)N/C=C/C(=O)O
> 100 µM: [24]
inactive: [1] > 100 µM | [2] > 100 µM | [3] > 100 µM | [4] > 100 µM | [5] > 100 µM | [6] > 100 µM | [7] 79.6 µM | [8] > 100 µM | [9] > 100 µM | [10] > 100 µM | [11] > 100 µM | [12] > 100 µM | [13] > 100 µM | [14] > 100 µM | [15] > 100 µM | [16] > 100 µM | [17] > 100 µM | [19] > 100 µM | [20] > 100 µM | [21] > 100 µM | [22] > 100 µM | [23] > 100 µM | [57] > 100 µM | [25] > 100 µM | [26] > 100 µM | [27] > 100 µM | [28] > 100 µM | [29] > 100 µM | [30] > 100 µM | [31] > 100 µM | [32] > 100 µM | [33] > 100 µM | [58] > 100 µM | [35] > 10 µM | [36] > 100 µM | [37] > 100 µM | [38] > 100 µM | [39] > 100 µM | [40] > 100 µM | [41] > 100 µM | [59] > 100 µM | [42] > 100 µM | [43] > 100 µM | [45] > 100 µM | [46] > 100 µM | [47] > 100 µM | [48] > 100 µM | [49] > 100 µM | [50] > 100 µM | [51] > 100 µM | [52] > 100 µM | [53] > 100 µM | [54] > 100 µM | [55] > 100 µM | [56] > 100 µM

C=C[C@]1(C)C[C@@H](OC(=O)CO)[C@@]2(C)[C@H](C)CC[C@]3(CCC(=O)[C@H]32)[C@@H](C)[C@@H]1O
inactive: [1] > 89.5 µM | [2] > 61.2 µM | [3] 83.4 µM | [4] > 100 µM | [5] > 86.1 µM | [6] > 61.4 µM | [7] 70.5 µM | [8] > 100 µM | [9] > 91.2 µM | [10] > 100 µM | [11] > 54.6 µM | [12] 71.8 µM | [13] > 55.2 µM | [14] 67.9 µM | [15] > 100 µM | [16] > 100 µM | [17] 49.8 µM | [18] > 59.3 µM | [19] > 74 µM | [20] > 59 µM | [21] > 55.6 µM | [22] > 79.3 µM | [23] > 43.4 µM | [57] > 100 µM | [25] > 100 µM | [26] > 60.1 µM | [27] > 78.9 µM | [29] 72.9 µM | [30] > 70.1 µM | [31] > 83.2 µM | [32] > 63.5 µM | [33] 7.59 µM | [34] > 59.3 µM | [58] > 76.6 µM | [35] > 100 µM | [36] > 31.6 µM | [37] > 100 µM | [38] > 100 µM | [39] > 74.1 µM | [40] > 53.1 µM | [41] > 100 µM | [59] 40 µM | [42] > 93.5 µM | [43] > 100 µM | [44] > 100 µM | [45] > 82.2 µM | [46] 99.5 µM | [47] 37.5 µM | [48] > 76.4 µM | [49] > 100 µM | [50] > 68.1 µM | [51] > 100 µM | [52] 21.5 µM | [53] > 100 µM | [54] > 100 µM | [55] > 100 µM | [56] > 100 µM
> 94.8 µM: [24]

O=c1[nH]c(=O)n(C/C=C/CBr)nc1Br
inactive: [1] 13.2 µM | [2] 17.5 µM | [3] 14.2 µM | [4] 13.9 µM | [5] 13.4 µM | [6] 14.5 µM | [7] 4.08 µM | [9] 15.9 µM | [10] 14.5 µM | [11] 13.5 µM | [12] 21.9 µM | [13] 12.2 µM | [14] 4.33 µM | [15] 14 µM | [16] 16.9 µM | [17] 5.87 µM | [18] 12.6 µM | [19] 12 µM | [20] 12 µM | [21] 13 µM | [22] 9.4 µM | [23] 3.08 µM | [57] 14.7 µM | [25] 14.1 µM | [26] 11.6 µM | [27] 13.9 µM | [28] 7.74 µM | [29] 14.9 µM | [30] 12.6 µM | [31] 14.1 µM | [32] 18.5 µM | [33] 13.8 µM | [34] 17.7 µM | [58] 12.3 µM | [35] 12.9 µM | [36] 1.81 µM | [37] > 100 µM | [38] 10.4 µM | [39] 14.9 µM | [40] 19 µM | [41] 17.6 µM | [59] 15.8 µM | [42] 13 µM | [43] 14.2 µM | [44] 15.8 µM | [45] 14.4 µM | [46] 12.6 µM | [47] 16 µM | [48] 17.2 µM | [49] 12.6 µM | [50] 13.6 µM | [51] 3.49 µM | [52] 10.1 µM | [53] 14.9 µM | [54] 14.8 µM | [55] 11.9 µM | [56] 15.1 µM
14.5 µM: [24]

From ChEMBL document CHEMBL1201862, “PubChem BioAssay data set” (2004)
